Measured values taken from patent US20260144796A1, “Compounds and Methods for Improving Health” (Acurx Pharmaceuticals, Inc., priority 2022, published 2026).
In brackets after ≈: the same amount, converted by molar mass. Where two headings read alike, the source gives them in different places.

Key:
gut microbiome [1] = experiment: Germ-free humanized mouse study, 16S rRNA gut microbiome analysis; type: in vivo; conditions: humanized germ-free mice
Source text: Germ-free (GF) mice (six per group) were randomly assigned to IBZ, VAN, FDX, MTZ, or control groups.
An oral gavage of healthy human-derived fecal slurry was given to GF mice. The humanized mice were housed in a sterile biological safety cabinet (BSC) for one week to allow the donor gut microbiome to establish. Humanized mice were then moved to sterile, micro-isolator cages and pellet chow diet was exchanged for a powder chow diet. The humanized mice were then allowed one week to acclimate to the powder chow diet. In addition, a stool sample was obtained prior to the change in diet (baseline 1). At day 14, once the mice acclimated to the powder chow diet, a second baseline stool sample was obtained (baseline 2) and antibiotic treatment was started. The appropriate antibiotics were added to the powder chow diet for 10 days. At day 16, two days after beginning antibiotic treatment, another stool sample was collected (ABX-1). During the 10-day antibiotic treatment, powder chow dishes were refilled each day with fresh chow containing the randomly assigned antibiotic. Stool samples were again collected at day 24 (ABX-2).
To assess antibiotic microbiome effect, 16S rRNA metagenomics was used on stool samples that were collected at day 0 (baseline 1 and baseline 2) and after 2 and […] of treatment with antibiotics. Bulk DNA was extracted from stool samples using the DNeasy® PowerSoil® Kit. The V4 region of the bacterial 16S rRNA gene was sequenced using the Illumina MiSeq and CLC Genomics Workbench. Raw sequencing reads were processed and curated using the mothur (v.1.48.0) software package and the mothur MiSeq SOP was followed as outlined in Schloss, P. D., et al., Introducing mothur: open-source, platform-independent, community supported software for describing and comparing microbial communities. Appl Environ Microbiol, 2009. 75(23): p. 7537-41 (see also, Kozich, J. J., et al., Development of a dual-index sequencing strategy and curation pipeline for analyzing amplicon sequence data on the MiSeq Illumina sequencing platform. Appl Environ Microbiol, 2013. 79(17): p. 5112-20.). All data visualization and statistical analysis were performed using R studio (R Core Team (2023). R: A Language and Environment for Statistical Computing, Vienna, Austria.).

[2] = tested on: C. difficile biofilms (strains R20291, CD 630); experiment: C. difficile in vitro biofilm studies (MIC, MBIC, CFU/mL, Crystal Violet biomass); type: cell-based; conditions: for MBIC: Minimum Biofilm Inhibitory Concentration; for MIC: Clostridioides difficile
Procedure: A basic flow chart outlining the experimental procedure used in these studies may be seen in FIG. 14. Briefly, C. difficile laboratory strain R20291 was grown in Brain heart infusion-supplemented (BHIS) medium. […] Biofilm formation was established via anaerobic incubation of the cultures at 37° C. for 24 hrs. Early biofilm formation was established at 4 hrs, whereas late biofilm formation was established at 24 hrs, 48 hrs, and 72 hrs. Following biofilm formation, the BHIS medium was removed and replaced with fresh media comprising no antibiotic (control), ibezapolstat (IBZ), Fidaxomicin (FDX), or metronidazole (MTZ). The cultures were then anaerobically incubated for 24 hrs or subjected to time course tests. Biofilm biomass was measured using Crystal Violet staining. […] Data was measured and recorded using Cytation 3 calibrated to read at A570. Data was analyzed by comparing percent growth of antibiotic treated cultures with controls.

[3] = tested on: C. difficile clinical isolates; conditions: for MIC: Clostridioides difficile, 24 h, agar dilution; for MIC range: across the twelve clinical isolates tested
gut microbiome [4] = experiment: Phase 1 healthy volunteer study, gut microbiome (metagenomics, qPCR); type: in vivo, human; conditions: phase 1 healthy volunteer study; treatment over 10 days; shotgun metagenomic sequencing
[5] = tested on: bacterial infections in the gut; conditions: treatment of bacterial infections in the gut; cited from earlier work
[6] = antibiotic in powder chow 10 days
[7] = antibiotic in powder chow 10 days, compared to Baseline 2 (D14)
[8] = C. diff. strain R20291, read-out: MIC
[9] = C. difficile clinical isolate MT 4802
[10] = C. difficile clinical isolate MT 5071
[11] = C. difficile clinical isolate MT 5342
[12] = C. difficile clinical isolate MT 5364
[13] = C. difficile clinical isolate MT 5382
[14] = C. difficile clinical isolate MT 5426
[15] = C. difficile clinical isolate MT 5493
[16] = C. difficile clinical isolate MT 5515
[17] = C. difficile clinical isolate MT 5529
[18] = C. difficile clinical isolate MT 5536
[19] = C. difficile clinical isolate SH 1132

Compound	Average Change in Metric ± SD, Bray-Curtis Dissim. to Baseline 1 (gut microbiome [1]; [6])	Average Change in Metric ± SD, Bray-Curtis Dissim. to Baseline 2 (gut microbiome [1]; [6])	Avg. Change in Relative Abundance ± SD, Proteobacteria (gut microbiome [1]; [7])	MBIC ([2]; C. diff. strain R20291) [µg/mL]	MIC [2, 8] [µg/mL]	MIC [3, 9] [µg/mL]	MIC [3, 10] [µg/mL]	MIC [3, 11] [µg/mL]	MIC [3, 12] [µg/mL]	MIC [3, 13] [µg/mL]	MIC [3, 14] [µg/mL]	MIC [3, 15] [µg/mL]	MIC [3, 16] [µg/mL]	MIC [3, 17] [µg/mL]	MIC [3, 18] [µg/mL]	MIC [3, 19] [µg/mL]	MIC range [3] [µg/mL]	relative abundance of Proteobacteria (in words) (gut microbiome [1]; phylum level)	relative abundance of Verrucomicrobiota (in words) (gut microbiome [1]; phylum level)	further results
CCc1c(Cl)c(O)c(Cl)c(O)c1C(=O)O[C@H]1[C@H](O)[C@H](OC)[C@H](OC/C2=C\C=C\C[C@H](O)/C(C)=C/[C@H](CC)[C@@H](O[C@@H]3OC(C)(C)[C@@H](OC(=O)C(C)C)[C@H](O)[C@@H]3O)/C(C)=C/C(C)=C/C[C@@H]([C@@H](C)O)OC2=O)O[C@@H]1C [Fidaxomicin, fidaxomicin]	0.62 ± 0.02	0.39 ± 0.03	10.2% ± 3%	0.125	0.06 (≈ 0.0567 µM)	0.006 (≈ 0.00567 µM)	1 (≈ 0.945 µM)	1 (≈ 0.945 µM)	1 (≈ 0.945 µM)	1 (≈ 0.945 µM)	0.5 (≈ 0.473 µM)	1 (≈ 0.945 µM)	2 (≈ 1.89 µM)	0.5 (≈ 0.473 µM)	1 (≈ 0.945 µM)	0.5 (≈ 0.473 µM)	<0.03125 to 2	–	–	change of Firmicutes (in words) (gut microbiome [1]; phylum level): increased; proportional change of Bacteroidetes (in words) (gut microbiome [1]; phylum level): proportional increases; Avg. Change in Relative Abundance ± SD, Bacteroidetes (gut microbiome [1]; [7]): 9.9% ± 2.9%; Avg. Change in Relative Abundance ± SD, Verrucomicrobia (Akkermansia) (gut microbiome [1]; [7]): 3.6% ± 2.8%
CN[C@H](CC(C)C)C(=O)N[C@H]1C(=O)N[C@@H](CC(N)=O)C(=O)N[C@H]2C(=O)N[C@H]3C(=O)N[C@H](C(=O)N[C@H](C(=O)O)c4cc(O)cc(O)c4-c4cc3ccc4O)[C@H](O)c3ccc(c(Cl)c3)Oc3cc2cc(c3O[C@@H]2O[C@H](CO)[C@@H](O)[C@H](O)[C@H]2O[C@H]2C[C@](C)(N)[C@H](O)[C@H](C)O2)Oc2ccc(cc2Cl)[C@H]1O [Vancomycin, vancomycin]	0.84 ± 0.02	0.75 ± 0.03	37.2% ± 2.8%	1	–	1 (≈ 0.69 µM)	4 (≈ 2.76 µM)	8 (≈ 5.52 µM)	4 (≈ 2.76 µM)	1 (≈ 0.69 µM)	4 (≈ 2.76 µM)	1 (≈ 0.69 µM)	4 (≈ 2.76 µM)	1 (≈ 0.69 µM)	2 (≈ 1.38 µM)	4 (≈ 2.76 µM)	1 to 16	proportional increases	increased	microbiome profile of treated subjects (gut microbiome [4]): larger proportion of Proteobacteria; relative abundance of Proteobacteria (in words) (gut microbiome [1]; phylum level, listed as VAN): increased; C. diff growth (CFU/mL) and biomass at sub-MIC compared to control ([2]; 0.4× MIC): reduced; growth in early biofilms at supra-MIC ([2]; 40× MIC, after 48 hours of treatment): reduced growth; MIC [2]: 1 µg/mL (≈ 0.69 µM); MIC ([3]; C. difficile clinical isolate MT 4883): 8 µg/mL (≈ 5.52 µM); patients having a recurring infection after treatment is discontinued [5]: 20-25%
Cc1ncc([N+](=O)[O-])n1CCO [Metronidazole, metronidazole]	0.92 ± 0.02	0.92 ± 0.04	15.1% ± 3.8%	0.5	0.5 (≈ 2.92 µM)	0.25 (≈ 1.46 µM)	1 (≈ 5.84 µM)	2 (≈ 11.7 µM)	2 (≈ 11.7 µM)	2 (≈ 11.7 µM)	4 (≈ 23.4 µM)	2 (≈ 11.7 µM)	4 (≈ 23.4 µM)	2 (≈ 11.7 µM)	0.25 (≈ 1.46 µM)	1 (≈ 5.84 µM)	0.25 to 8	proportional increases	increased	relative abundance of Proteobacteria (in words) (gut microbiome [1]; phylum level, listed as MTZ): increased; Avg. Change in Relative Abundance ± SD, Firmicutes (gut microbiome [1]; [7]): 36.5% ± 5.1%; Eagle effect in 24-hour biofilms ([2]; R20291 or CD 630, at higher concentrations): Eagle effect was observed
